Laboratory results reported in US9090621B2, “Tyrosine kinase inhibitors” (Principia Biopharma Inc., priority 2013, dated 2015).
Read-outs that look alike come from different tables or passages of the source.

Columns and labels:
human recombinant Btk [1] = target: T1, human recombinant Btk (Homo sapiens (Human), UniProt Q06187); details: Caliper-based kinase assay; human recombinant Btk 2 nM, ATP 40 μM, peptide substrate 1 μM, room temperature 3 h;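 also: Read-out is the quantity of phosphorylated substrate product formed, and IC50 reflects inhibition of Btk kinase activity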
Description: (§1) A Caliper-based kinase assay (Caliper Life Sciences, Hopkinton, Mass.) was used to measure inhibition of Btk kinase activity of a compound of Formula (IA), (I′) or (I). […] The reaction was then terminated with EDTA, final concentration 20 mM and the phosphorylated reaction product was quantified on a Caliper Desktop Profiler (Caliper LabChip 3000). […] This value is presented as the IC50.

human recombinant Btk [2] = target: T1, human recombinant Btk; assay: biochemical
Description: as §1

protein target = assay: Reversibility of Binding (compound in solution before and after perturbation of the target, HPLC-MS/MS); details: for Compound in solution in the denatured or digested state?: after denaturation with 5 M guanidine hydrochloride and digestion with trypsin; for Compound in solution in the native state?: protein target at a higher concentration than the compound, before perturbation
Description: The following approach was developed to differentiate compounds that form irreversible bonds with their targets, such as acrylamide compounds, from compound that bind reversibly. […] The reactions were then treated with perturbations including both denaturation with 5 M guanidine hydrochloride and digestion with trypsin, disrupting proper folding of the target. […] The concentration of compound in solution was assessed both preceding and following perturbation using high performance liquid chromatography (HPLC) coupled to tandem mass spectrometry.

T1 sequence (Q06187 whole entry): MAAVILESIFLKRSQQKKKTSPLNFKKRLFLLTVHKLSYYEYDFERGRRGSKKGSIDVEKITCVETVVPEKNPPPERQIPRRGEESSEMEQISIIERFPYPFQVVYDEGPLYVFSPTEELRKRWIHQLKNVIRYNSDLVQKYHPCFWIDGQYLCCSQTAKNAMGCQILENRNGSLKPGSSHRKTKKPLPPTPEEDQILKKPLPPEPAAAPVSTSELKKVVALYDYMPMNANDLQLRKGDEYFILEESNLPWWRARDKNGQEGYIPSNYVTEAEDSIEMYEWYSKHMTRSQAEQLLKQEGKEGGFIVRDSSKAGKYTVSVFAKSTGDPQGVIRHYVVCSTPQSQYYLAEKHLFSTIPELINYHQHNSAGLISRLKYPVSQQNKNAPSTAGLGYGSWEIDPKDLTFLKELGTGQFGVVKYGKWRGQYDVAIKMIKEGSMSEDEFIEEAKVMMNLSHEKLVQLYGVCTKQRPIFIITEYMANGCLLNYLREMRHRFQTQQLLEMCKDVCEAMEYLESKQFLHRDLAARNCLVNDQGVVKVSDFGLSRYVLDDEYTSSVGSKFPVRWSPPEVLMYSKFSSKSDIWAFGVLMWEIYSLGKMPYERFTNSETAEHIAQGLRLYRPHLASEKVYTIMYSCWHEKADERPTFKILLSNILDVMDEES

Structure (SMILES)	IC50 (human recombinant Btk [1])	IC50 (human recombinant Btk [2])	also measured
C=CC(=O)N1CCC[C@@H](n2nc(-c3ccc(Oc4ccccc4)cc3)c3c(N)ncnc32)C1 [acrylamide-containing compound 1, reference compound]			Compound in solution in the denatured or digested state? (protein target): depleted from solution in both the native and perturbed state; Compound in solution in the native state? (protein target): depleted from solution in both the native and perturbed state
CC(C)(C)C=C(C#N)C(=O)NC1CCC(n2nc(-c3ccc(NC(=O)c4ccc(C(F)(F)F)cc4)cc3)c3c(N)ncnc32)CC1 (centres unmarked) [10 (Cpd Table 2), N-(4-(4-amino-1-((1s,4s)-4-(2-cyano-4,4-dimethylpent-2-enamido)cyclohexyl)-1H-pyrazolo[3,4-d]pyrimidin-3-yl)phenyl)-4-(trifluoromethyl)benzamide]	> 1000 nM		
CC(C)C=C(C#N)C(=O)N1CCC[C@H]1Cn1nc(-c2ccc(Oc3c(F)cccc3F)cc2)c2c(N)ncnc21 [Example 75B, (S)-2-(2-((4-amino-3-(4-(2,6-difluorophenoxy)phenyl)-1H-pyrazolo[3,4-d]pyrimidin-1-yl)methyl)pyrrolidine-1-carbonyl)-4-methylpent-2-enenitrile]		100 nM	
CC(C)(C)C=C(C#N)C(=O)NC1CCC(n2nc(-c3ccc(NC(=O)c4ccc(C(F)(F)F)cc4)cc3)c3c(N)ncnc32)CC1 (centres unmarked) [8 (Cpd Table 2), N-(4-(4-amino-1-((1r,4r)-4-(2-cyano-4,4-dimethylpent-2-enamido)cyclohexyl)-1H-pyrazolo[3,4-d]pyrimidin-3-yl)phenyl)-4-(trifluoromethyl)benzamide]	> 1000 nM		
CC(C)C=C(C#N)C(=O)N1CCC[C@H]1Cn1nc(-c2ccc(Oc3cccc(F)c3)cc2F)c2c(N)ncnc21 [Example 73B, (S)-2-(2-((4-amino-3-(2-fluoro-4-(3-fluorophenoxy)phenyl)-1H-pyrazolo[3,4-d]pyrimidin-1-yl)methyl)pyrrolidine-1-carbonyl)-4-methylpent-2-enenitrile]		11 nM	
C[C@@H](Cn1nc(-c2ccc(Oc3ccccc3)cc2F)c2c(N)ncnc21)NC(=O)C(C#N)=CC(C)(C)N(C)C [Example 185B, (S)-N-(1-(4-amino-3-(2-fluoro-4-phenoxyphenyl)-1H-pyrazolo[3,4-d]pyrimidin-1-yl)propan-2-yl)-2-cyano-4-(dimethylamino)-4-methylpent-2-enamide]		11 nM	
N#CC(=CC1CC1)C(=O)N1CCC[C@@H](n2cc(-c3ccc(Oc4ccccc4)cc3)c3c(N)ncnc32)C1 [Example 27, (R)-2-(3-(4-amino-5-(4-phenoxyphenyl)-7H-pyrrolo[2,3-d]pyrimidin-7-yl)piperidine-1-carbonyl)-3-cyclopropylacrylonitrile]			Compound in solution in the denatured or digested state? (protein target): yes; Compound in solution in the native state? (protein target): depleted in the folded state and no
N#CC(=CC1CC1)C(=O)N1CCC[C@H]1Cn1nc(-c2ccc(Oc3cc(F)cc(F)c3)cc2)c2c(N)ncnc21 [Example 25B, (S)-2-(2-((4-amino-3-(4-(3,5-difluorophenoxy)phenyl)-1H-pyrazolo[3,4-d]pyrimidin-1-yl)methyl)pyrrolidine-1-carbonyl)-3-cyclopropylacrylonitrile]		140 nM	
N#CC(=CC1CC1)C(=O)N1CCC[C@@H]1Cn1nc(-c2ccc(Oc3cc(F)cc(F)c3)cc2)c2c(N)ncnc21 [Example 25A, (R)-2-(2-((4-amino-3-(4-(3,5-difluorophenoxy)phenyl)-1H-pyrazolo[3,4-d]pyrimidin-1-yl)methyl)pyrrolidine-1-carbonyl)-3-cyclopropylacrylonitrile]		9.6 nM	
CC(C)(N)C=C(C#N)C(=O)N1CCC[C@H]1Cn1nc(-c2ccc(Oc3cccc(F)c3)cc2F)c2c(N)ncnc21 [Example 72B, (S)-4-amino-2-(2-((4-amino-3-(2-fluoro-4-(3-fluorophenoxy)phenyl)-1H-pyrazolo[3,4-d]pyrimidin-1-yl)methyl)pyrrolidine-1-carbonyl)-4-methylpent-2-enenitrile]	28 nM		
N#CC(=CC1CC1)C(=O)N1CCC[C@@H]1Cn1nc(-c2ccc(Oc3cc(F)cc(F)c3)cc2F)c2c(N)ncnc21 [Example 41A, (R)-2-(2-((4-amino-3-(2-fluoro-4-(3,5-difluorophenoxy)phenyl)-1H-pyrazolo[3,4-d]pyrimidin-1-yl)methyl)pyrrolidine-1-carbonyl)-3-cyclopropylacrylonitrile]		3.2 nM	
N#CC(=CC1CC1)C(=O)N1CCC[C@@H]1Cn1nc(-c2ccc(Oc3c(F)cccc3F)cc2)c2c(N)ncnc21 [Example 32A, (R)-2-(2-((4-amino-3-(4-(2,6-difluorophenoxy)phenyl)-1H-pyrazolo[3,4-d]pyrimidin-1-yl)methyl)pyrrolidine-1-carbonyl)-3-cyclopropylacrylonitrile]		1.7 nM	

Second part, led by results:

IC50 (human recombinant Btk [1])	IC50 (human recombinant Btk [2])	Structure (SMILES)	also measured
2.6 nM		N#CC(=CC1CC1)C(=O)N1CCCC1Cn1nc(-c2ccc(Oc3ccccc3)cc2)c2c(N)ncnc21 (centres unmarked) [Example 22B]	
27 nM		CC(C)(CNC(=O)C(C#N)=CC1CC1)Cn1nc(-c2ccc(Oc3ccccc3)cc2)c2c(N)ncnc21 [Example 67, N-(3-(4-amino-3-(4-phenoxyphenyl)-1H-pyrazolo[3,4-d]pyrimidin-1-yl)-2,2-dimethylpropyl)-2-cyano-3-cyclopropylacrylamide]	
	2.7 nM	CC(C)(C)C=C(C#N)C(=O)N1CCC[C@@H](n2nc(-c3ccc(Oc4ccccc4)cc3)c3c(N)ncnc32)C1 [29 A, (R)-2-(3-(4-amino-3-(4-phenoxyphenyl)-1H-pyrazolo[3,4-d]pyrimidin-1-yl)piperidine-1-carbonyl)-4,4-dimethylpent-2-enenitrile]	
6.2 nM		N#CC(=CC1CC1)C(=O)N1CCC[C@@H]1Cn1nc(-c2ccc(Oc3cccc(F)c3)cc2)c2c(N)ncnc21 [Example 24A, (R)-2-(2-((4-amino-3-(4-(3-fluorophenoxy)phenyl)-1H-pyrazolo[3,4-d]pyrimidin-1-yl)methyl)pyrrolidine-1-carbonyl)-3-cyclopropylacrylonitrile]	
	7 nM	CC(C)C=C(C#N)C(=O)N1CCC[C@H]1Cn1nc(-c2ccc(Oc3cccc(F)c3F)cc2)c2c(N)ncnc21 [Example 76B, (S)-2-(2-((4-amino-3-(4-(2,3-difluorophenoxy)phenyl)-1H-pyrazolo[3,4-d]pyrimidin-1-yl)methyl)pyrrolidine-1-carbonyl)-4-methylpent-2-enenitrile]	
1.7 nM		NC(=O)C(=CC1CC1)C(=O)N1CCC[C@@H](n2nc(-c3ccc(Oc4cccc(F)c4)cc3)c3c(N)ncnc32)C1 [Example 15A, (R)-2-(3-(4-amino-3-(4-(3-fluorophenoxy)phenyl)-1H-pyrazolo[3,4-d]pyrimidin-1-yl)piperidine-1-carbonyl)-3-cyclopropylacrylamide]	
32.5 nM		CC1(C=C(C#N)C(=O)N2CCC[C@H]2Cn2nc(-c3ccc(Oc4ccccc4)cc3F)c3c(N)ncnc32)COC1 [Example 197B]	
0.4 nM		CCNC(C)(C)C=C(C#N)C(=O)N1CCCC1Cn1nc(-c2ccc(Oc3ccccc3)cc2F)c2c(N)ncnc21 (stereo in doubt) [Example 85A, (S)-2-(2-((4-amino-3-(2-fluoro-4-phenoxyphenyl)-1H-pyrazolo[3,4-d]pyrimidin-1-yl)methyl)pyrrolidine-1-carbonyl)-4-(ethylamino)-4-methylpent-2-enenitrile]	
7.3 nM		CCOC(C)(C)C=C(C#N)C(=O)N1CCC[C@@H](n2nc(-c3ccc(Oc4cccc(F)c4F)cc3F)c3c(N)ncnc32)C1 [Example 156A, (R)-2-(3-(4-amino-3-(4-(2,3-difluorophenoxy)-2-fluorophenyl)-1H-pyrazolo[3,4-d]pyrimidin-1-yl)piperidine-1-carbonyl)-4-ethoxy-4-methylpent-2-enenitrile]	
	5 nM	Cc1cc(Oc2ccccc2)ccc1-c1nn(C[C@H]2CCCN2C(=O)C(C#N)=CC2CC2)c2ncnc(N)c12 [Example 69A, (R)-2-(2-((4-amino-3-(2-methyl-4-phenoxyphenyl)-1H-pyrazolo[3,4-d]pyrimidin-1-yl)methyl)pyrrolidine-1-carbonyl)-3-cyclopropylacrylonitrile]	
34 nM		CC(C)(C)C=C(C#N)C(=O)N1CCC[C@@H]1Cn1cc(-c2ccc(Oc3cccc(F)c3F)cc2)c2c(N)ncnc21 [Example 173B]	
26 nM		N#CC(=CC1CC1)C(=O)N1CCC[C@H]1Cn1cc(-c2ccc(Oc3ccccc3)cc2F)c2c(N)ncnc21 [Example 59B, (S)-2-(2-((4-amino-5-(2-fluoro-4-phenoxyphenyl)-7H-pyrrolo[2,3-d]pyrimidin-7-yl)methyl)pyrrolidine-1-carbonyl)-3-cyclopropylacrylonitrile]	
4.3 nM		NC(=O)C(=CC1CC1)C(=O)N1CCC[C@@H](n2nc(-c3ccc(Oc4c(F)cccc4F)cc3)c3c(N)ncnc32)C1 [Example 36A, (R)-2-(3-(4-amino-3-(4-(2,6-difluorophenoxy)phenyl)-1H-pyrazolo[3,4-d]pyrimidin-1-yl)piperidine-1-carbonyl)-3 cyclopropylacrylamide]	
17.2 nM		CCNC(C)(C)C=C(C#N)C(=O)N1CCCC1Cn1nc(-c2ccc(Oc3ccccc3)cc2F)c2c(N)ncnc21 (stereo in doubt) [Example 85B, (R)-2-(2-((4-amino-3-(2-fluoro-4-phenoxyphenyl)-1H-pyrazolo[3,4-d]pyrimidin-1-yl)methyl)pyrrolidine-1-carbonyl)-4-(ethylamino)-4-methylpent-2-enenitrile]	
0.9 nM		CC(C)(C=C(C#N)C(=O)N1CCC[C@@H](n2nc(-c3ccc(Oc4cccc(F)c4F)cc3F)c3c(N)ncnc32)C1)N1CCOCC1 [Example 162A, (R)-2-(3-(4-amino-3-(4-(2,3-difluorophenoxy)-2-fluorophenyl)-1H-pyrazolo[3,4-d]pyrimidin-1-yl)piperidine-1-carbonyl)-4-methyl-4-morpholinopent-2-enenitrile]	
